Columns and labels:
Assay type in all cases: physicochemical
[1] = Lewis basicity LB from equilibrium constants (photometric titrations) with benzhydrylium ions as reference Lewis acids; parameters: key: Mayr Lewis basicity scale; LB from K and reference LA via Eq. (3); conditions: in dichloromethane, 20 °C
Experimental: (a) Lewis basicity. Previously, the Mayr group established a series of benzhydrylium ions as C‐centered Lewis acid references to construct a Lewis basicity scale in dichloromethane. Substituting experimentally determined equilibrium constants K (at 20 °C) and reported Lewis acidities LA for the benzhydrylium ions (Figure 7) in Equation (3) enables one to calculate the Lewis basicity (LB) of a Lewis base.^[ [121], [127] ^] (3) lgK(20^∘C)=LA+LB
The reversibility of the formation of adducts 19 (Equation (4)), which was also apparent in the kinetics by significant positive intercepts in several of the k obs versus [IChU] plots (Supporting Information), provided the opportunity to probe the thermodynamics of the C‐N bond‐forming reactions of IChUs with benzhydrylium ions as the reference Lewis acids in more detail.^[ [95] ^] (4) IChU+Ar2CH^+(18)⇌Ar2CH-IChU^+(19)
By assuming the validity of the Beer–Lambert law for dilute solutions, equilibrium constants K (L mol^−1) were determined in photometric titrations according to Equation (5) from the initial absorbance (A 0) of the benzhydrylium ions 18 and the absorbance at equilibrium (A, Equation 5), that is, after addition of a certain amount of an IChU.^[ [109], [110], [111], [112], [113], [114], [115], [119] ^] (5) K=[19]/[18]IChU=A0−A/AIChU

[2] = Kinetics of IChU reactions with reference electrophile (mor)2CH+ (stopped-flow photometry); conditions: E = −5.53, dichloromethane, 20 °C
Excerpt: (§1) In order to systematically investigate the influence of the chalcogen atom on the nucleophilicity of DHPB‐derived IChUs (Ch = O, S, Se, and Te), we utilized Mayr's benzhydrylium methodology.^[ [107] ^]
(§2) In accordance with observations in previous studies on ITU reactivity,^[ [119] ^] mixing the strongly colored benzhydrylium tetrafluoroborates 18 with excess IChUs in dichloromethane gave rise to decolorization of the solutions due to the formation of isochalcogenouronium tetrafluoroborates 19, which are colourless (Figure 3a). […] To establish pseudo first‐order conditions and to secure a sufficient decay of the benzhydrylium's absorbance during the course of the reactions, the IChUs were employed at higher concentrations than the benzhydrylium ions. First‐order rate constants k obs (s^−1) were determined by fitting the mono‐exponential decay function in Equation (2) to the decreasing absorbance (A) of 18 during their reaction with the IChUs as exemplified for the reaction of ITeU3 with (ind)2CH^+ in Figure 3b. […]
(§3) First‐order rate constants k obs correlated linearly with the IChU concentration. Therefore, second‐order rate constants k 2 (L mol^−1 s^−1) were determined from the slope of the linear regression curves (Figure 3c ^[ [95] ^]). […]

[3] = Kinetics of IChU reactions with reference electrophile (pyr)2CH+ (stopped-flow photometry); conditions: E = −7.69, dichloromethane, 20 °C
Excerpt: as §1
(§4) In accordance with observations in previous studies on ITU reactivity,^[ [119] ^] mixing the strongly colored benzhydrylium tetrafluoroborates 18 with excess IChUs in dichloromethane gave rise to decolorization of the solutions due to the formation of isochalcogenouronium tetrafluoroborates 19, which are colourless (Figure 3a). Owing to reversibility of the C─N bond formation, generated adducts 19 from the IChU/benzhydrylium reactions were not isolated but characterized by ^1H, ^13C, and ^77Se NMR spectroscopy (the ^77Se nucleus is remarkably sensitive with observed changes of around 100 ppm when comparing the ^77Se resonances of free ISeUs with those of the corresponding selenouronium tetrafluoroborates^[ [95] ^]). The kinetics of the IChU reactions with the reference electrophiles 18 were traced by photometric methods using standard stopped‐flow techniques. To establish pseudo first‐order conditions and to secure a sufficient decay of the benzhydrylium's absorbance during the course of the reactions, the IChUs were employed at higher concentrations than the benzhydrylium ions. First‐order rate constants k obs (s^−1) were determined by fitting the mono‐exponential decay function in Equation (2) to the decreasing absorbance (A) of 18 during their reaction with the IChUs as exemplified for the reaction of ITeU3 with (ind)2CH^+ in Figure 3b. (2) A=A0e^−kobst+C […]
(§5) First‐order rate constants k obs correlated linearly with the IChU concentration. Therefore, second‐order rate constants k 2 (L mol^−1 s^−1) were determined from the slope of the linear regression curves (Figure 3c ^[ [95] ^]). Second‐order rate constants k 2 for all kinetically investigated reactions of DHPB‐derived IChUs (Ch = O, S, Se, and Te) with benzhydrylium ions 18 are gathered in Table 1.
(§6) Apart from CH2Cl2 also MeCN and THF are solvents that are commonly employed in reactions involving isochalcogenoureas. […]

[4] = Kinetics of IChU reactions with reference electrophile (dpa)2CH+ (stopped-flow photometry); conditions: E = −4.72, dichloromethane, 20 °C
Excerpt: as §1, §2, §3

[5] = Kinetics of IChU reactions with reference electrophile (mpa)2CH+ (stopped-flow photometry); conditions: E = −5.89, dichloromethane, 20 °C
Excerpt: as §1, §2, §3

[6] = Kinetics of IChU reactions with reference electrophile (ind)2CH+ (stopped-flow photometry); conditions: E = −8.76, dichloromethane, 20 °C
Excerpt: as §1, §4, §5, §6

[7] = Kinetics of IChU reactions with reference electrophile (lil)2CH+ (stopped-flow photometry); conditions: E = −10.04, dichloromethane, 20 °C
Excerpt: as §1, §2, §3

[8] = Kinetics of IChU reactions with reference electrophile (thq)2CH+ (stopped-flow photometry); conditions: E = −8.22, dichloromethane, 20 °C
Excerpt: as §1, §2, §3

c1ccc2c(c1)OC1=NCCCN12 [IU3, ODHPB]
Lewis basicity LB [1]: 13.66
Second-order rate constant k2 exptl [2]: 185000 M⁻¹ s⁻¹
Second-order rate constant k2 exptl [3]: 7930 M⁻¹ s⁻¹
Second-order rate constant k2 exptl [4]: 896000 M⁻¹ s⁻¹
Second-order rate constant k2 exptl [5]: 129000 M⁻¹ s⁻¹
Second-order rate constant k2 exptl [6]: 1200 M⁻¹ s⁻¹

c1ccc2c(c1)[Se]C1=NCCCN12 [ISeU3, SeDHPB]
Lewis basicity LB [1]: 15.54
Second-order rate constant k2 exptl [7]: 1980 M⁻¹ s⁻¹
Second-order rate constant k2 exptl [3]: 107000 M⁻¹ s⁻¹
Second-order rate constant k2 exptl [5]: 1.16e+06 M⁻¹ s⁻¹
Second-order rate constant k2 exptl [6]: 18100 M⁻¹ s⁻¹
Second-order rate constant k2 exptl [8]: 38100 M⁻¹ s⁻¹

Reference: article PMC12643354, “From Oxygen to Tellurium: The Impact of the Chalcogen on Nucleophilicities and Basicities of Isochalcogenourea Catalysts” (Angewandte Chemie (International Ed. in English), 2025)
